Source: PubChem BioAssay AID1963985 (Molecular Pharmacology Branch, DTP, NCI, 2024)

Tested on: 252836-082-R-J2-PDC tumor spheroids, viability
Experiment: Anticancer human tumor 252836-082-R-J2-PDC patient-derived head and neck squamous cell carcinoma cell line growth inhibition [PI3K]
Details: spheroids with HUVEC and MSC; for IC50: curve of first compound; for viability, T/C: stronger effect = lower value
Procedure, shortened: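 High-throughput combination screen: PI3K inhibitors crossed with targeted small molecules on complex spheroids of tumor cells, HUVEC and MSCs at 37 degrees C, 5% CO2. Top concentration was at or near clinical Cmax (otherwise 10 microM), with half-log decrements.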
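Also: spheroids exposed to agents for seven days before readout.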
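For viability, T/C in this document: percent of vehicle DMSO control viability so 100% = untreated growth.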

IC50 (second compound 0.0316 µM): < 31.6 nM
IC50 (second compound 0.1 µM): < 31.6 nM
IC50 (second compound 0.316 µM): < 31.6 nM
IC50 (second compound 1 µM): < 31.6 nM
IC50 (second compound 3.16 µM): < 31.6 nM
IC50 (second compound 10 µM): < 31.6 nM
Compound: CC1(C)CCC(Nc2ncc(C(F)(F)F)c(-c3c[nH]c4c(P(C)(C)=O)c(C#N)ccc34)n2)CN1 (configuration not stated) + Cc1nc(NC(=O)N2CCCC2C(N)=O)sc1-c1ccnc(C(C)(C)C(F)(F)F)c1
viability, T/C (second compound 0.0316 µM, first compound 0.0316 µM): 39.2%
viability, T/C (second compound 0.0316 µM, first compound 0.1 µM): 27.6%
viability, T/C (second compound 0.0316 µM, first compound 0.316 µM): 33.3%
viability, T/C (second compound 0.0316 µM, first compound 1 µM): 30.5%
viability, T/C (second compound 0.0316 µM, first compound 3.16 µM): 38.8%
viability, T/C (second compound 0.0316 µM, first compound 10 µM): 6.62%
viability, T/C (second compound 0.1 µM, first compound 0.0316 µM): 36.2%
viability, T/C (second compound 0.1 µM, first compound 0.1 µM): 33.4%
viability, T/C (second compound 0.1 µM, first compound 0.316 µM): 32.2%
viability, T/C (second compound 0.1 µM, first compound 1 µM): 30.9%
viability, T/C (second compound 0.1 µM, first compound 3.16 µM): 38.4%
viability, T/C (second compound 0.1 µM, first compound 10 µM): 7.19%
viability, T/C (second compound 0.316 µM, first compound 0.0316 µM): 28.8%
viability, T/C (second compound 0.316 µM, first compound 0.1 µM): 27.6%
viability, T/C (second compound 0.316 µM, first compound 0.316 µM): 28.4%
viability, T/C (second compound 0.316 µM, first compound 1 µM): 27.2%
viability, T/C (second compound 0.316 µM, first compound 3.16 µM): 32.8%
viability, T/C (second compound 0.316 µM, first compound 10 µM): 6.05%
viability, T/C (second compound 1 µM, first compound 0.0316 µM): 27.4%
viability, T/C (second compound 1 µM, first compound 0.1 µM): 26.9%
viability, T/C (second compound 1 µM, first compound 0.316 µM): 28.2%
viability, T/C (second compound 1 µM, first compound 1 µM): 25.9%
viability, T/C (second compound 1 µM, first compound 3.16 µM): 23.1%
viability, T/C (second compound 1 µM, first compound 10 µM): 3.48%
viability, T/C (second compound 3.16 µM, first compound 0.0316 µM): 23.1%
viability, T/C (second compound 3.16 µM, first compound 0.1 µM): 21.1%
viability, T/C (second compound 3.16 µM, first compound 0.316 µM): 22.7%
viability, T/C (second compound 3.16 µM, first compound 1 µM): 24%
viability, T/C (second compound 3.16 µM, first compound 3.16 µM): 20.9%
viability, T/C (second compound 3.16 µM, first compound 10 µM): 2.65%
viability, T/C (second compound 10 µM, first compound 0.0316 µM): 15.8%
viability, T/C (second compound 10 µM, first compound 0.1 µM): 18.1%
viability, T/C (second compound 10 µM, first compound 0.316 µM): 19.4%
viability, T/C (second compound 10 µM, first compound 1 µM): 17.7%
viability, T/C (second compound 10 µM, first compound 3.16 µM): 12.7%
viability, T/C (second compound 10 µM, first compound 10 µM): 1.03%
